Measurements: patent US20170349592A1, “POLYMORPHIC SUBSTANCE OF YONKENAFIL HYDROCHLORIDE, PREPARATION METHOD THEREFOR, AND COMPOSITION AND USE THEREOF” (Yangtze River Pharmaceutical Group Co., Ltd., priority 2014, published 2017)

Test: Standing of the crystalline form at room temperature (polymorph stability)
Type: physicochemical
Conditions: standing at the condition of room temperature for one week; monohydrochloride

Row | SMILES | stability of the crystalline form (polymorphic conversion)
1 | CCCn1cc(C)c2c(=O)[nH]c(-c3cc(S(=O)(=O)N4CCN(CC)CC4)ccc3OCC)nc21.Cl [A-type polymorphic substance of yonkenafil hydrochloride] [2-[2-ethoxy-5-(4-ethylpiperazine-1-sulfonyl)phenyl]-5-methyl-7-n-propyl-3,7-dihydropyrrolo[2,3-d]pyrimidin-4-one monohydrochloride] | more stable than the B-type polymorphic substance of yonkenafil hydrochloride
2 | CCCn1cc(C)c2c(=O)[nH]c(-c3cc(S(=O)(=O)N4CCN(CC)CC4)ccc3OCC)nc21.Cl [B-type polymorphic substance of yonkenafil hydrochloride] [2-[2-ethoxy-5-(4-ethylpiperazine-1-sulfonyl)phenyl]-5-methyl-7-n-propyl-3,7-dihydropyrrolo[2,3-d]pyrimidin-4-one monohydrochloride] | can be converted into the A-type polymorphic substance of yonkenafil hydrochloride
